Source: patent publication US8710064B2, “2-aryl-4-quinazolinones and their pharmaceutical compositions” (China Medical University, priority 2011, dated 2014)

System: C6 glioma cells
Experiment: G1 synchronized by Ara-C, flow cytometry
Format: cell-based, rat
Conditions: 41.6 nM Ara-C for 12 hours
Protocol: At indicated time points (0, 6, 12 and 24 hr), >10^6 cells were collected and fixed in 70% ethanol over 1 hour at −20° C. After staining with PI as described, DNA content of ten thousand cells was analyzed by flow cytometry.
To investigate the influence of MJ-66 on normal glia such as human glia cell line SVGP12 and rat primary glia cells, cells were treated with different concentrations of MJ-66 in vitro (0.00625, 0.0125, 0.025, 0.05, 0.1 and 1 μM) for different time durations (0, 6, 12 and 24 hours) and the cell viability was assessed by MTS assay. Cells alone or treated with DMSO were used as control. […] However, most glia cells in animals are static and their proliferation rate is almost silent. Therefore, cytosine arabinoside (Ara-C), a DNA synthesis inhibitor, was further used to inhibit glioma cell proliferation and glioma cells were then treated with MJ-66 or DMSO as described in “General materials and methods”. Specifically, after C6 glioma cells were treated with 41.6 nM Ara-C for 12 hours, and then treated with solvent (DMSO) or 60 nM MJ-66 for 0, 6, 12 and 24 hours, the cell cycle distributions and DNA content of the cells were monitored by flow cytometry with propidium iodide staining C6 glioma cells treated with 41.6 nM Ara-C for 12 hours (12 hr) were detected by flow cytometry with propidium iodide staining as control.

Nc1ccn([C@@H]2O[C@H](CO)[C@@H](O)[C@@H]2O)c(=O)n1 [Ara-C, cytosine arabinoside, reference compound]
cell cycle state of C6 glioma cells: G1 arrest
